Article PMC5688144, “Assay interference and off-target liabilities of reported histone acetyltransferase inhibitors” (Nature Communications, 2017)
“Also recorded” adds a separate entry of the source. Each block holds one compound with its values, some of them ahead of it.

What was measured:
[1] = test system: caspase 3/7 activity in HEK293T and MCF7 cells; assay: Live-cell caspase 3/7 activity; format: cell-based; settings: 24 h after compound addition
Description: (§1) For cell growth analyses, cells were seeded in 96-well plates, treated with compounds for the indicated times, and monitored over time in a live cell Incucyte™ ZOOM imager (Essen Biosciences). To label apoptotic and dead cells, caspase 3/7 activatable DEVD recognition motif NucView™ 488 DNA intercalating dye (1:1000 dilution, Essen Biosciences) and SYTOX™ green nucleic acid stain (1:1000 dilution, Invitrogen) were used respectively, following manufacturer instructions.

HEK293T and MCF7 cells [2] = assay: Membrane permeability (SYTOX green uptake); format: cell-based; settings: for membrane permeability: Sytox green dead-cell dye uptake
Description: as §1

[3] = Autofluorescence counter-screen; format: physicochemical; settings: autofluorescence at eight fluorophore settings; 32 nM-100 μM compound
Description: Selected test compounds were assessed for autofluorescence using an adaption of published procedures. […] Final concentration of DMSO was constant at 1.0% (v/v). Compounds and fluorophore standards were transferred as 10 mM DMSO stock solutions to 384-well black polystyrene microplates via Echo 550 dispenser. The plate arrangement was purposefully designed to minimize optical crosstalk by fluorophore standards. All measurements were performed in ALARM NMR buffer (25 mM sodium phosphate, pH 7.0) at 25 °C. Aliquots of 20 μL buffer were dispensed into microplate wells via ThermoFisher Multidrop dispenser. Compounds were shaken for 1 min on a plate shaker, centrifuged briefly for 1 min at 1000×g, then allowed to incubate at RT in buffer for 10 min before measuring fluorescence intensity on a SpectraMax M3 plate reader under reduced lighting. […] Bandwidth filters were set to default mode. Fluorescence intensity was measured for each test compound using each of the eight fluorophore standard settings. Fluorophores present on each plate were then used to construct normalized fluorescence dose-responses (“fluorophore-equivalent concentrations”, FEC). Fluorescence intensity for each test compound was converted to the appropriate FEC.

AmpC β-lactamase = biological target: T1, AmpC β-lactamase (Escherichia coli, UniProt P00811); assay: biochemical; design: species or system E. coli; settings: 10 μM compound; for AmpC aggregation counter-screen: ± 0.01% Triton X-100
T1 construct: Recombinant E. coli AmpC (amino acids 20–377); purchased MyBioSource.com
Description: Selected compounds were assessed for aggregation using a modified AmpC β-lactamase counter-screen[24],[32],[64]. Recombinant E. coli AmpC (amino acids 20–377) was obtained from MyBioSource.com. Testing was performed in ALARM NMR buffer (25 mM sodium phosphate, pH 7.0) in flat-bottom UV-transparent 96-well microplates in 150 μL reaction volumes. Compounds were tested in triplicate at 10 μM final concentrations in either the presence or absence of freshly-prepared 0.01% Triton X-100 (v/v). Final concentration of DMSO was 2.0% (v/v). Compounds were incubated with ~5 nM AmpC in 147 μL reaction buffer for 5 min at RT, followed by the addition of 3 μL of nitrocefin substrate (100 μM final concentration). Reaction solutions were gently mixed by pipetting up and down three times using a multichannel pipette. […] Percent activity was normalized to DMSO-only controls. Fluconazole and lidocaine were included as negative aggregation control compounds. Rottlerin was included as a positive aggregation control compound. Aggregators were defined as compounds with significant detergent-dependent changes in AmpC activity (t-test, adjusted P-value <0.05; mean differences greater than 30%). Activators were defined as compounds that increased AmpC enzymatic activity.

Absorbance spectra = format: physicochemical; settings: 25 mM sodium phosphate, pH 7.0
Description: Selected test compounds were assessed for absorption between 300 and 750 nm. Most compound absorption spectra were obtained at 100, 50, and 10 μM final compound concentrations in ALARM NMR buffer (25 mM sodium phosphate, pH 7.0). Final concentration of DMSO was constant at 2.0% (v/v). Compounds were allowed to incubate at RT in buffer for 10 min in UV-transparent polystyrene 384-well plates. Absorbance spectra were then obtained on a SpectraMax M3 or BMG Labtech CLARIOstar microplate reader at 25 °C. Significant absorbance was defined as molar absorptivity constants greater than 2000 M^−1 cm^−1 at wavelengths greater than 300 nm.

human La antigen = biological target: T2, human La antigen (Homo sapiens, UniProt P05455, T302N); assay: ALARM NMR; format: binding; settings: 400 μM compound
T2 construct: amino acids 100–324 of the human La antigen (plus T302N mutation); 6xHis (N); 6xHis (C); host or cells: Escherichia coli Rosetta cells
T2 sequence (P05455 100-324 T302N): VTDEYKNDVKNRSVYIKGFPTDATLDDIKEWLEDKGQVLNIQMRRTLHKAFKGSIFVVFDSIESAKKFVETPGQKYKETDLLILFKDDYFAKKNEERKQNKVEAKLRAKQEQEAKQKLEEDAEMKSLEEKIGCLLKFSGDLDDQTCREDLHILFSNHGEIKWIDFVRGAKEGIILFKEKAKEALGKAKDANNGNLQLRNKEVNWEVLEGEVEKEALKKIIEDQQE
Excerpt: The gene encoding amino acids 100–324 of the human La antigen (plus T302N mutation) was cloned into pET28b + vector (Novagen) with both an N- and C-terminal 6xHis tag (addgene.org, plasmid ID 90209). The sequence identity of the ALARM NMR plasmid construct was verified by Sanger sequencing of the transgene region and next-generation sequencing of the whole plasmid.
Plasmid was transformed into Escherichia coli Rosetta cells (Novagen) and cultured in M9 minimal media. The La antigen was labeled by adding ^13C-labeled amino acid precursors ([3-^13C]-α-ketobutyrate and [3,3′-^13C]-α-ketoisovalerate sodium salts; Cambridge Isotope Laboratories; 250 mg L^−1 final concentrations) to culture medium 30 min before induction with IPTG (1 mM final concentration). Bacteria were collected after incubation at 25 °C for 8 h and washed with ice-cold phosphate-buffered saline (PBS). Washed cells were lysed by French press in ice-cold lysis buffer (50 mM Tris, pH 7.6, 300 mM NaCl, 10% glycerol (v/v), 5 mM β-mercaptoethanol (BME), 5 mM imidazole, 2 mM MgCl2, benzonase, and protease inhibitor cocktail), followed by an additional brief sonication step (3 × 15 s pulse sequence) on ice. This lysed solution was centrifuged (30,000×g for 30 min, two cycles) to remove cellular debris, then loaded onto a pre-washed Ni-NTA bead column (Qiagen) kept at 4 °C and washed with buffer (50 mM Tris, pH 7.6, 300 mM NaCl, 10% glycerol (v/v), 5 mM BME, 5 mM imidazole). The La antigen was eluted with an elution buffer (50 mM Tris, pH 7.6, 300 mM NaCl, 10% glycerol (v/v), 5 mM BME, imidazole gradient ranging from 5 mM to 0.5 M). […] Aliquots were flash-frozen in liquid N2 and stored at −80 °C until further use. Before use, aliquots of ~150 μM protein were incubated in the presence of 20 mM DTT at 37 °C for 1 h, then dialyzed (25 mM sodium phosphate buffer, pH 7.0 (no DTT)) in 16 h cycles at 4 °C with constant nitrogen bubbling and with gentle stirring, for three total buffer cycles.
For standard testing conditions, the [^1H-^13C]-HMQC spectra were acquired in 25 mM sodium phosphate buffer, pH 7.0, 10% D2O (v/v; CIL) ± 400 μM test compounds delivered from the aforementioned stock solutions, and ± 20 mM non-deuterated DTT. Final concentration of DMSO was 4.0% (v/v). Reaction solutions were mixed, then centrifuged for 5 min (1000×g) in non-binding 384-well microplates at RT, then incubated at 37 °C for 1 h and then 30 °C for 15 h before obtaining spectra. Samples were checked for evidence of gross precipitation. Data were recorded at 298 K on a Bruker UltraShield 700 MHz NMR spectrometer equipped with a Bruker 1.7 mm TCI Cryoprobe and Bruker SampleJet autosampler. Samples were tested at 50 μM protein concentrations using 16 scans, 2048 complex points in F2, and 80 points in F1 using standard protein [^1H-^13C]-HMQC and water suppression pulse sequences.
Data were analyzed in TopSpin™ 3.5 (Bruker). Reactions were normalized to equivalent DMSO controls. Non-reactive compounds were identified by the absence of chemical shifts or changes in peak intensities (^13C-methyl) ± 20 mM DTT.

p300/CBP = settings: cited from earlier work
[4] = Fluorescence quenching counter-screen; format: physicochemical; settings: 10 μM fluorophore; 32 nM-100 μM compound
Description: Selected test compounds were assessed for fluorescence quenching using adaptions of previously published procedures[9],[24]. Briefly, test compounds and individual fluorophore standards were incubated together. The fluorescence intensity of these mixtures was compared to the fluorescence intensity of the same fluorophore standards minus test compounds. Each microplate contained positive control columns (DMSO plus fixed concentration of a single fluorophore), negative control columns (DMSO), and experimental wells (test compounds plus fixed concentration of a single fluorophore). […] Final concentration of DMSO was constant at 2.0% (v/v). […] All measurements were performed in ALARM NMR buffer (25 mM sodium phosphate, pH 7.0) at 25 °C. Aliquots of 20 μL buffer were dispensed into microplate wells via ThermoFisher Multidrop dispenser. Microplates were shaken for 1 min on a plate shaker, centrifuged briefly for 1 min at 1000×g, then allowed to incubate at RT for 10 min before measuring fluorescence intensity on a SpectraMax M3 plate reader under reduced lighting. Instrument settings for each fluorophore were unchanged from the aforementioned autofluorescence studies.

[5] = test system: H3K27ac levels in HEK293T and MCF7 cells; assay: Cellular H3K27ac western blot; format: cell-based; settings: 10 and 30 μM compound
Description: (§2) Cells were cultured in DMEM supplemented with 10% fetal bovine serum (Winsent), penicillin (100 U mL^−1), and streptomycin (100 µg mL^−1). Compounds dissolved in DMSO or matching DMSO-only controls were added to cells for indicated times. Compound effects in cells were determined as described[67] and are outlined below.
For western blot analyses, cells were lysed in lysis buffer (20 mM Tris–HCl, pH 8, 150 mM NaCl, 1 mM EDTA, 10 mM MgCl2, 0.5% Triton X-100 (v/v), 12.5 U mL^−1 benzonase (Sigma), complete EDTA-free protease inhibitor cocktail (Roche)). After 3 min incubation at RT, SDS was added to final 1% concentration (w/v). Total cell lysates were resolved in 4–12% Bis-Tris protein gels (Invitrogen) with MOPS buffer (Invitrogen) and transferred for 1.5 h (80 V) onto PVDF membrane (Millipore) in tris-glycine transfer buffer containing 20% methanol and 0.05% SDS. Blots were blocked for 1 h in blocking buffer (5% milk in 0.1% Tween 20/PBS) and incubated with respective primary antibodies: H3K27ac (1:1000, CST #8173), H3 (1:1000, Abcam #10799), p300 (1:2000, Bethyl #A300-358A), CBP (1:1000, Bethyl #A300-362A), actin (1:3000, Abcam #3280), α-tubulin (1:1000, 12G10 DHSB), and α-tubulin-K40ac (1:2000, Abcam #179484) in blocking buffer overnight at 4 °C. After five washes with 0.1% Tween 20/PBS, the blots were incubated with goat anti-rabbit IgG (IRDye 800-conjugated, LiCor #926-32211) and donkey anti-mouse IgG (IRDye 680-conjugated, LiCor #926-68072) antibodies (1:5000) in Odyssey Blocking Buffer (LiCor) for 1 h at RT and washed with 0.1% Tween 20/PBS. The signal was read on an Odyssey scanner (LiCor) at 800 and 700 nm. Representative uncropped images with molecular weight markers are provided (Supplementary Figs. 9, 12, 13).

HEK293T and MCF7 cells [6] = assay: Cell proliferation by cell confluence; format: cell-based; settings: 10 and 30 μM compound, 24 h
Description: as §2, §1

Compound: O=C(O)CCSc1cc(NS(=O)(=O)c2ccc(Br)cc2)c2ccccc2c1O [Compound 24, JMC2015-6a]
caspase 3/7 activity [1]: induce; also recorded: increased | cytotoxicity by membrane integrity studies (HEK293T and MCF7 cells [2]; 30 µM compound, MCF7 cells): cytotoxic | membrane permeability (HEK293T and MCF7 cells [2]): increased

Compound: CCCCCCCCCCCCCCC=C(C(=O)OCC)C(=O)OCC [Compound 19, LoCAM]
Fluorescence counter-screen [3]: Negative | AmpC counter-screen result (AmpC β-lactamase; detergent-sensitive modulation): likely aggregators | AmpC aggregation counter-screen (AmpC β-lactamase): Detergent-sensitive (Aggregators were defined as compounds with significant detergent-dependent changes in AmpC activity (t-test, adjusted P-value <0.05; mean differences greater than 30%)) | Absorption max (nm) (Absorbance spectra): Nominal | Absorbance counter-screen (Absorbance spectra; 300-750 nm): Negative | ALARM NMR, (-) DTT (human La antigen; 0 mM DTT): Negative | ALARM NMR, (+) DTT (human La antigen; DTT present): Negative | ALARM NMR interpretation (human La antigen; with and without DTT): Inert as tested | % inhibition, p300/CBP (p300/CBP; @ 50 µM, ref 23 (Supplementary References)): 74% | Quenching counter-screen [4]: Negative

Compound: CC(=O)c1c(O)c(C)c(O)c(Cc2c(O)c3c(c(C(=O)/C=C/c4ccccc4)c2O)OC(C)(C)C=C3)c1O [Rottlerin]
cellular H3K27ac levels [5]: decreased H3K27ac levels | effect on cell proliferation (cell confluence) (HEK293T and MCF7 cells [6]): cytotoxic effects | effect on cell proliferation (cell confluence) (HEK293T and MCF7 cells [6]; listed as rottlerin): anti-proliferative effects

Compound: c1cc(SSc2ccns2)sn1 [Compound 2, NU-9056]
AmpC aggregation counter-screen (AmpC β-lactamase): Detergent-insensitive | IC50 (p300/CBP; original report, 27 (Supplementary References)): 59 µM

Further lines, with some results ahead:

caspase 3/7 activity [1]: induce; also recorded: increased
Compound: O=[N+]([O-])c1cc(Br)c2nsnc2c1Sc1ncnc2[nH]cnc12 [Compound 26, JMC2015-2a]
membrane permeability (HEK293T and MCF7 cells [2]): increased

caspase 3/7 activity [1]: induce; also recorded: increased
Compound: O=C1C(Cl)=C(NCCN2CCOCC2)C(=O)c2ncccc21 [NSC-663284]
cellular H3K27ac levels [5]: decreased H3K27ac levels | membrane permeability (HEK293T and MCF7 cells [2]): increased
